Experimental findings from BindingDB's records for doi:10.1111/cbdd.12826 (Universidade De Lisboa, 2016) are described below.

Counter-ions that a name gives are not always drawn.

The term IC50 denotes the point on the concentration scale where inhibition reaches its midpoint.

DNA-(apurinic or apyrimidinic site) endonuclease, sequence (P27695 whole entry): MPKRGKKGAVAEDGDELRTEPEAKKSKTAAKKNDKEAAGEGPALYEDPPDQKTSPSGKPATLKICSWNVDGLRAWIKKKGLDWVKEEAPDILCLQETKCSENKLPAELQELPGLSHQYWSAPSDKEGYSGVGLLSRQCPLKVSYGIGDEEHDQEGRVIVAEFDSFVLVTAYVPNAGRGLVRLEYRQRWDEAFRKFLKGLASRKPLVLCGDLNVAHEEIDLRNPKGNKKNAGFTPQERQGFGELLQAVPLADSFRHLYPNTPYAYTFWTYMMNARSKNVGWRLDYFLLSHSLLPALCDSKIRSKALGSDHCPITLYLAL

This assay addresses DNA-(apurinic or apyrimidinic site) endonuclease (Homo sapiens, UniProt P27695). Nature of the assay: Fluorescence-Based APE1 Endonuclease Activity Assay. The conditions noted are these: pH 7.5. The procedure:
In this assay, the complementary single-stranded oligonucleotides at […] were mixed at a 1:1 ratio and annealed in assay buffer (50 mm Tris pH 7.5, 25 mm NaCl, 2 mm MgCl2, 1 mm DTT, 0.01% Tween-20) at 95 °C for 5 min to generatethe double-stranded substrate of APE1.[A. Simeonov, A. Kulkarni, D. Dorjsuren, A. Jadhav, M. Shen, D. R. McNeill, C. P. Austin, D. M. Wilson 3rd, PLoS ONE 2009, 4, p. e5740.] After the annealing, the reaction mixture was allowed to cool to room temperature. The assay was carried out in 96-well black plates with flat bottom (Costar, Corning Inc., NY, USA) at a finalreaction volume of 100 μL. The reaction mixtures containing 2.5 U of human recombinant APE1 (6 μL) (New England Biolabs, Ipswich, MA, USA) were incubated in the assay buffer abovementioned, in the absence or presence of the putative APE1 inhibitors (5 μL), at room temperature for 15 min. The reaction was initiated by the addition of double-stranded substrate (6 μL) to obtain the final concentration of 250 nm. DMSO was maintained at a concentration of 0.5% (v/v) in all assays (negative control). Fluorescence readings were acquired at 1-min intervals over an incubation period of 30 min at 37 °C using a SpectraMax Gemini EM microplate plate reader (Molecular Devices, Berkshire, UK) in the kinetic mode at excitation wavelength 550 nm, emission wavelength 584 nm, and cutoff at 570 nm.
As to `Nc1ccc2cc(S(=O)(=O)O)cc(O)c2c1/N=N/c1ccc([N+](=O)[O-])cc1S(=O)(=O)O` [6-amino-4-hydroxy-5-[(4-nitro-2-sulfophenyl)azo]-2-naphtalenesulfonic acid disodium salt (Compound 37)], half-maximal inhibition (IC50) was put at 7.76 µM.

For `CC(=O)Nc1ccc(/C=C/c2ccc(N=C=S)c(S(=O)(=O)O)c2)c(S(=O)(=O)O)c1` [(5-(acetylamino)-2-[2-(4-isothiocyanato-3-sulfophenyl)ethenyl]benzenesulfonic acid disodium salt (Compound 22)], the IC50 came out at 0.25 µM.

Take `Nc1ccc(/N=N/c2c(N)ccc3cc(S(=O)(=O)O)cc(O)c23)c(S(=O)(=O)O)c1` [6-amino-5-[(4-amino-2-sulfophenyl)azo]-4-hydroxy-2-naphtalenesulfonic acid disodium salt (Compound 41)]: the IC50 came to 8.85 µM.
